Measured values from ChEMBL document CHEMBL1201862, “PubChem BioAssay data set” (2004).
Calls of active or inactive are those of the source.

Assays:
Assay type in all cases: functional
[1] = target: T1, Replicative DNA helicase DnaB (Mycobacterium tuberculosis, UniProt P9WMR3); experiment: DnaB intein splicing inhibitors, dose response, biochemical, cell-free fluorescence (AID 449749)
T1 sequence (P9WMR3 whole entry): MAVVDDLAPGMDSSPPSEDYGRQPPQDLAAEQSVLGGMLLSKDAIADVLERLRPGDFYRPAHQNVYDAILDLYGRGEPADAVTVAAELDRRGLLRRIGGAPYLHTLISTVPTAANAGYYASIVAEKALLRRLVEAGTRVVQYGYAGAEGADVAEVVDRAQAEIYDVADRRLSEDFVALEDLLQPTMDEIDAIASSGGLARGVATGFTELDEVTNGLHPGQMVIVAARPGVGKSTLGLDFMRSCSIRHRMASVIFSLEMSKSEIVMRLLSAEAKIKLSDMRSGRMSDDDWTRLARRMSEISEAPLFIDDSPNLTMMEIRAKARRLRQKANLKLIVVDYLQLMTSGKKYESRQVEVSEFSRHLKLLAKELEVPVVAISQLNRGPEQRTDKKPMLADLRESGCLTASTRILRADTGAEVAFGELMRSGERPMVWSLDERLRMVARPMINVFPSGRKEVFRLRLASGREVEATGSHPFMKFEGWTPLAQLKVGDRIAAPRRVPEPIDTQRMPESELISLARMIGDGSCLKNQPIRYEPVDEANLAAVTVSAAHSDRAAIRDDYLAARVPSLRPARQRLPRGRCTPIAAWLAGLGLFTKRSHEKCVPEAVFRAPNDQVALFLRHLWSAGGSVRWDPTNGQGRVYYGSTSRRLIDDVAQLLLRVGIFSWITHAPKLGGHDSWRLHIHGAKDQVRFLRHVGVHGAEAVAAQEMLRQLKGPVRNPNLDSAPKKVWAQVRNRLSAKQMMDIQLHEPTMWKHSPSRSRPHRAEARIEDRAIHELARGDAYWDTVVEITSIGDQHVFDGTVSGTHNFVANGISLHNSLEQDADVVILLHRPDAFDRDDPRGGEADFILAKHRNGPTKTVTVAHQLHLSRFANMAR

[2] = target: Protein kinase C zeta type (Homo sapiens, UniProt Q05513);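 note: measured as one member of a broad kinase profiling panel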
[3] = target: Cyclin-dependent kinase 8 (Homo sapiens, UniProt P49336); experiment: Navigating the Kinome. Panel member name: CDK8
Chain of Cyclin-dependent kinase 8 (P49336 whole entry): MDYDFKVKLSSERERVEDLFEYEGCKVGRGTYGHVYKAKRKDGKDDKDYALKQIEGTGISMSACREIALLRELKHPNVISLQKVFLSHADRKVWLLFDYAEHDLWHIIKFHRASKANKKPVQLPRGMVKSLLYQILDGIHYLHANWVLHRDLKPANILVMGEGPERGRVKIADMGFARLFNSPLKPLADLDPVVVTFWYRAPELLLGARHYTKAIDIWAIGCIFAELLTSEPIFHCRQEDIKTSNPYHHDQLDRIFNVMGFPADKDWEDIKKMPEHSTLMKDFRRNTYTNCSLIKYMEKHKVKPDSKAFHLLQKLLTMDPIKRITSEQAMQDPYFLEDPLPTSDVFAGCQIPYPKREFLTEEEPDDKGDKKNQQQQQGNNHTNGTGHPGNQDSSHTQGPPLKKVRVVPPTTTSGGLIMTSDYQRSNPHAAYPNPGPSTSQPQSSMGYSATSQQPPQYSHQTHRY

[4] = target: Mast/stem cell growth factor receptor Kit (Homo sapiens, UniProt P10721);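 note: KIT entry within a kinase panel assay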
Chain of Mast/stem cell growth factor receptor Kit (P10721 whole entry, canonical isoform): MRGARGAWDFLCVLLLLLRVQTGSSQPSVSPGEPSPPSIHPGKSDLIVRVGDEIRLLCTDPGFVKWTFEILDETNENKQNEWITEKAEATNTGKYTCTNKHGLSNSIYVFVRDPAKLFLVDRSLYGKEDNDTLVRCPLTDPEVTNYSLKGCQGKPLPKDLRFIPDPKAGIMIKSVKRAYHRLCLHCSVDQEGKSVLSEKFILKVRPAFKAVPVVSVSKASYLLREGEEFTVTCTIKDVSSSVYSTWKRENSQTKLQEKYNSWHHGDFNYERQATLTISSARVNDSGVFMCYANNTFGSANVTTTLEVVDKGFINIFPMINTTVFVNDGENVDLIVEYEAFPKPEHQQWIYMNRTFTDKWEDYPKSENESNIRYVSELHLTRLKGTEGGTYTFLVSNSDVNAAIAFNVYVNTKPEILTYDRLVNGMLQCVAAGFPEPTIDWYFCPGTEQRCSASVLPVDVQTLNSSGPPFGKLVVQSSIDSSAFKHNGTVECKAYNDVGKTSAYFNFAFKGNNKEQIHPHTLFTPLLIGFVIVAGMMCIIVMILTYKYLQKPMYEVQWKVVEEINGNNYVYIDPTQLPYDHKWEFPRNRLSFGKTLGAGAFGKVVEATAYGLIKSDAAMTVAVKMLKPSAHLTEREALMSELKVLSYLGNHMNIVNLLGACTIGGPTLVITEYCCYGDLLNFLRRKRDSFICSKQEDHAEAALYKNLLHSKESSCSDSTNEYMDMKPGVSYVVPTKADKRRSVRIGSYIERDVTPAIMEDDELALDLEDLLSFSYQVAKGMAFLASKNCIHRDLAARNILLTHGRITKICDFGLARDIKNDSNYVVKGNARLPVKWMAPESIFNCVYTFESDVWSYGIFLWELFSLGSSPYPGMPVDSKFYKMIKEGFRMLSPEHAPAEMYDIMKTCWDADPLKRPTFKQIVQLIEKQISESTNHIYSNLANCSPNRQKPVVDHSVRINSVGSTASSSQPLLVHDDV

[5] = target: Casein kinase I isoform gamma-1 (Homo sapiens, UniProt Q9HCP0);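 note: measured as the CSNK1G1 member of a kinome profiling panel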
Chain of Casein kinase I isoform gamma-1 (Q9HCP0 whole entry, canonical isoform): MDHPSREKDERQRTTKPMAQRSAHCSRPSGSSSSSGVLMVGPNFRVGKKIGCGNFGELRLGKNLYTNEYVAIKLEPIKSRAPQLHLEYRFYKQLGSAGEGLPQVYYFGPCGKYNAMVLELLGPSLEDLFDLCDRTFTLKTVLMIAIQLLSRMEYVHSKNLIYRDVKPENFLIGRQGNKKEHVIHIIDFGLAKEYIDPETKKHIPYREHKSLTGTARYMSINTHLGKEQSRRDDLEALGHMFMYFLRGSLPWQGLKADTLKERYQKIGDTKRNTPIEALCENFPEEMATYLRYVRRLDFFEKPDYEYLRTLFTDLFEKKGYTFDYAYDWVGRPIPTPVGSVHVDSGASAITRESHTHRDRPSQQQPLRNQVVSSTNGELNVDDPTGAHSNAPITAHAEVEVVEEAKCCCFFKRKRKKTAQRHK

[6] = target: BDNF/NT-3 growth factors receptor (Homo sapiens, UniProt Q16620);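 note: NTRK2 measured as one member of a broad kinome-wide kinase profiling panel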
[7] = target: T2, Serine/threonine-protein kinase Chk1 (Homo sapiens, UniProt O14757);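 note: measured as one member of a kinome-wide kinase profiling panel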
T2 sequence (O14757 whole entry): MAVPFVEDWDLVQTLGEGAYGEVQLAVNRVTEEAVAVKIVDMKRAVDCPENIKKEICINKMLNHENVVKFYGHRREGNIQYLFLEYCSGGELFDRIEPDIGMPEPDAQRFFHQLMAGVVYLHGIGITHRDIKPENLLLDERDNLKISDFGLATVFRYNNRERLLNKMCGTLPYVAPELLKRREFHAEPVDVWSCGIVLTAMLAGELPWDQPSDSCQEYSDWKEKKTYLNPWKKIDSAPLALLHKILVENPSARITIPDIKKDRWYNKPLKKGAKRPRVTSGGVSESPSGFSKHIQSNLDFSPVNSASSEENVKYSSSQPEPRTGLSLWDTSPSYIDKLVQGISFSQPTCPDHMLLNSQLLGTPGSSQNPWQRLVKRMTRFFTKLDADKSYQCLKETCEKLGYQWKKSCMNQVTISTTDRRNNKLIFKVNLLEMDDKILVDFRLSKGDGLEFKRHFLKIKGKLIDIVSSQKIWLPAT

[8] = target: Serine/threonine-protein kinase pim-1 (Homo sapiens, UniProt P11309)
Chain of Serine/threonine-protein kinase pim-1 (P11309 whole entry): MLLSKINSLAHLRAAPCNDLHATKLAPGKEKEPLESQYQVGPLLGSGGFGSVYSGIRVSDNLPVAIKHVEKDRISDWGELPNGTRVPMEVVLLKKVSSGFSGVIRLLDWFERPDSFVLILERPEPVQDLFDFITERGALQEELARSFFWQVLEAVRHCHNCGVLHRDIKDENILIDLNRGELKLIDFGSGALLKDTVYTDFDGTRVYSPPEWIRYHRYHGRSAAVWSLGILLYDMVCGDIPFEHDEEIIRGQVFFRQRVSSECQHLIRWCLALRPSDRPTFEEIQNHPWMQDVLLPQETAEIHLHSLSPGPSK

[9] = target: T3, Serine/threonine-protein kinase D3 (Homo sapiens, UniProt O94806);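 note: determined within a kinase panel screen, with PRKCN as the panel member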
T3 sequence (O94806 whole entry): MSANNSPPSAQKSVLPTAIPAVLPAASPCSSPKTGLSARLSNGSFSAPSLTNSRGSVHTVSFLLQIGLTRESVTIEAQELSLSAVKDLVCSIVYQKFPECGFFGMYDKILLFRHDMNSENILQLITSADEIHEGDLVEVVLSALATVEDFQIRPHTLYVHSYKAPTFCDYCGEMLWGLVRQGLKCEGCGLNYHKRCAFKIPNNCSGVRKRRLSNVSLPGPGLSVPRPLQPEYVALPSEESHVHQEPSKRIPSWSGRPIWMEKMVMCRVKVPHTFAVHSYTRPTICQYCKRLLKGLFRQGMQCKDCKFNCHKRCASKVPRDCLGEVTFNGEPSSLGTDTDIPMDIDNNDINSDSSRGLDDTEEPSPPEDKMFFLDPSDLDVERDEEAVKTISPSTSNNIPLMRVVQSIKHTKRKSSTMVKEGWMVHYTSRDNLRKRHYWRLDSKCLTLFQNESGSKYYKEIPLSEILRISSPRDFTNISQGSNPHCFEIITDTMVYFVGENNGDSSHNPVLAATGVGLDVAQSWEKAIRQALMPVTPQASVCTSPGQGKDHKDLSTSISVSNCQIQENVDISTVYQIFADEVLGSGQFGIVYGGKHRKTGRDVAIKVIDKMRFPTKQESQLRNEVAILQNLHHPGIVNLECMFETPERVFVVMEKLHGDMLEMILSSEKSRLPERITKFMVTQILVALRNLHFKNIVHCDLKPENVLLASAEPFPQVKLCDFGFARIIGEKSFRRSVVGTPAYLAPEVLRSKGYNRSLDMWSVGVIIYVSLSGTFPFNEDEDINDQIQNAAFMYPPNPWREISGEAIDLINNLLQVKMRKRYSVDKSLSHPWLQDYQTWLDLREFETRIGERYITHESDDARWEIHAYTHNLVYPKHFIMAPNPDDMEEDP

[10] = target: Calcium/calmodulin-dependent protein kinase type II subunit gamma (Homo sapiens, UniProt Q13555)
Chain of Calcium/calmodulin-dependent protein kinase type II subunit gamma (Q13555 whole entry): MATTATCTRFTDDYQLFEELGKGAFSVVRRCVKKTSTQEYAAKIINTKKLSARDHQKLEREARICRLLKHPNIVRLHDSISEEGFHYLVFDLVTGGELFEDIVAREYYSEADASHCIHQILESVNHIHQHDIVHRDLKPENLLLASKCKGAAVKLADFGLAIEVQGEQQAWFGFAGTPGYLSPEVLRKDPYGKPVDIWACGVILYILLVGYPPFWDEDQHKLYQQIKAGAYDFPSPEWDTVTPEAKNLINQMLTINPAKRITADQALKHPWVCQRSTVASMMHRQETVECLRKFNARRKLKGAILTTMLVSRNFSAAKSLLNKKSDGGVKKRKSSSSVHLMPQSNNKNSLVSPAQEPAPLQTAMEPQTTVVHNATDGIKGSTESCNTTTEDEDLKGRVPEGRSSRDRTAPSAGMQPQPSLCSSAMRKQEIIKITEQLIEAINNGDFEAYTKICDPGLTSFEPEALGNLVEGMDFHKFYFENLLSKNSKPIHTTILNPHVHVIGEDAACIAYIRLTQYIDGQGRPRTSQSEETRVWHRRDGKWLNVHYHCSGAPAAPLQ

[11] = target: cAMP-dependent protein kinase catalytic subunit PRKX (Homo sapiens, UniProt P51817)
[12] = target: Phosphorylase b kinase gamma catalytic chain, liver/testis isoform (Homo sapiens, UniProt P15735);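 note: PHKG2 measured as one member of a kinome-wide kinase panel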
Chain of Phosphorylase b kinase gamma catalytic chain, liver/testis isoform (P15735 whole entry, canonical isoform): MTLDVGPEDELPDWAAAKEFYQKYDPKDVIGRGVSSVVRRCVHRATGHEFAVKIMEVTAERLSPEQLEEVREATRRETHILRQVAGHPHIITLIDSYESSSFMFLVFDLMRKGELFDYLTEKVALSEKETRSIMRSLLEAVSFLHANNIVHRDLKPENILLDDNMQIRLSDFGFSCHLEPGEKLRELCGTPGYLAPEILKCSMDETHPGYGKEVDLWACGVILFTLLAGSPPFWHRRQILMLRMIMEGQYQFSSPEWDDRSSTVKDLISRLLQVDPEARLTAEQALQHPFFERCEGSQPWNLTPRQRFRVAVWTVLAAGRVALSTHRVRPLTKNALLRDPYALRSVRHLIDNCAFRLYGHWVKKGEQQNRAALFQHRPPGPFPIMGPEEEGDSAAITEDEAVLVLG

[13] = target: Calcium/calmodulin-dependent protein kinase type II subunit delta (Homo sapiens, UniProt Q13557)
[14] = target: Vascular endothelial growth factor receptor 2 (Homo sapiens, UniProt P35968)
Chain of Vascular endothelial growth factor receptor 2 (P35968 whole entry): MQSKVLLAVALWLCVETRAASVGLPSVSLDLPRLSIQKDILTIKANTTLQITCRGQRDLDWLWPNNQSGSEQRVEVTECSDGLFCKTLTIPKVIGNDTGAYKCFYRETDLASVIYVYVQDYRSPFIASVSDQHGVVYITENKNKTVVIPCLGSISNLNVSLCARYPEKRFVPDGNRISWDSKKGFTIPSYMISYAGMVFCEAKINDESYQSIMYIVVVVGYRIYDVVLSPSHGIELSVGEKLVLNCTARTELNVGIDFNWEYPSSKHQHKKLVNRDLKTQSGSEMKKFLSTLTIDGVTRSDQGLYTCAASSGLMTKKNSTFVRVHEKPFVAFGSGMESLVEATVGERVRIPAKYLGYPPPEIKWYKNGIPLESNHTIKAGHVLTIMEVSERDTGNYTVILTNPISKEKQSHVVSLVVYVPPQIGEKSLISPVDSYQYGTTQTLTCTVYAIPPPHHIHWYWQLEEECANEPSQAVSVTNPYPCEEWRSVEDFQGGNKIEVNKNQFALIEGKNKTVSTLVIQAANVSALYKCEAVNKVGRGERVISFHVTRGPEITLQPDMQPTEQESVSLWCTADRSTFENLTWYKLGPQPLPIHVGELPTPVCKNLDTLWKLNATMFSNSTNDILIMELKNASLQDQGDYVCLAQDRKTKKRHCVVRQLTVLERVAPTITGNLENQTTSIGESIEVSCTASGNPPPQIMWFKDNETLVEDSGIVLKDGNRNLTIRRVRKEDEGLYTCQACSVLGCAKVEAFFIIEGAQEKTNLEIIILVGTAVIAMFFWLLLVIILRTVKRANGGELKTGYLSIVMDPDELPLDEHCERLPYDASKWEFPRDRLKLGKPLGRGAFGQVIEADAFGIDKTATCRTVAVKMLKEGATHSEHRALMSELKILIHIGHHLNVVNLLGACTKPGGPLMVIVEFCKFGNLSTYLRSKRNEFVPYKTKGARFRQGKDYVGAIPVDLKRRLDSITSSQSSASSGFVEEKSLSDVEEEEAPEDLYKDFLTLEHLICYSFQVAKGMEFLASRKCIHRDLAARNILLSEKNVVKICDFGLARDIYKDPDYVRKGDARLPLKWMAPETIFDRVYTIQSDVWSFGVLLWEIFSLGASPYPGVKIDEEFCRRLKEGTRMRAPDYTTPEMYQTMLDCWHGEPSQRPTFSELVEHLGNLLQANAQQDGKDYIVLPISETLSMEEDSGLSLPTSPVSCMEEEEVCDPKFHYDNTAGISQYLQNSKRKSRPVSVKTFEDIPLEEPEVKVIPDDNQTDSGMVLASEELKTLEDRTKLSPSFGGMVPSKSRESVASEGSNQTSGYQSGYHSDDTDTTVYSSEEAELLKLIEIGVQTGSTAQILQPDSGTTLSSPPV

[15] = target: Serine/threonine-protein kinase 3 (Homo sapiens, UniProt Q13188);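 note: measured as one member of a kinome-wide kinase panel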
Chain of Serine/threonine-protein kinase 3 (Q13188 whole entry): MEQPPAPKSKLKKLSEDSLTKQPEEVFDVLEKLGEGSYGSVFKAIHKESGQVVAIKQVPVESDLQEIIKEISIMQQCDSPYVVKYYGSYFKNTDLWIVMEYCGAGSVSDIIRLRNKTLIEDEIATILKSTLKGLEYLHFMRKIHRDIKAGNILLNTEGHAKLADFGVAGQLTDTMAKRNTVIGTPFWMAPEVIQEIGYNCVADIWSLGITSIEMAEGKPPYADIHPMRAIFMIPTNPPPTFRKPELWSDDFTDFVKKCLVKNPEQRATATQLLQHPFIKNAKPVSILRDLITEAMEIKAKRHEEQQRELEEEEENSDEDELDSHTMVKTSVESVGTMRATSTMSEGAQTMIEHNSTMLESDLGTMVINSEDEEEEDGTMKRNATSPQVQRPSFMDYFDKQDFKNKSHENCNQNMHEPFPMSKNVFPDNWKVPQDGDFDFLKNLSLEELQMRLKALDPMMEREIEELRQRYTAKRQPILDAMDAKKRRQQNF

Structure (SMILES) | AC50 [1] | Ki [2] | Ki [3] | Ki [4] | Ki [5] | Ki [6] | Ki [7] | Ki [8] | Ki [9] | Ki [10] | Ki [11] | Ki [12] | Ki [13] | Ki [14] | Ki [15]
COC(=O)CCS(=O)(=O)c1nc(-c2ccccc2)cc(C(F)(F)F)n1 | 3.44 µM (active) |  |  |  |  |  |  |  |  |  |  |  |  |  | 
O=C(O)c1ccc(NC2=C(Cl)C(=O)c3ccccc3C2=O)cc1 | 3.36 µM (active) |  |  |  |  |  |  |  |  |  |  |  |  |  | 
O=C(O)c1ccc2c3c(ncnc13)-c1ccccc1C2=O | 4.07 µM (active) |  |  |  |  |  |  |  |  |  |  |  |  |  | 
Cc1ccc2nccc(NC(=O)Nc3cccc(C(F)(F)F)n3)c2c1 |  | > 7.94 µM (inactive) | 0.2 µM (active) | > 3.16 µM (inactive) | > 6.31 µM (inactive) | > 5.01 µM (inactive) | > 7.94 µM (inactive) | > 3.16 µM (inactive) | 1.26 µM (active) | > 6.31 µM (inactive) | > 2.51 µM (inactive) | > 5.01 µM (inactive) | > 6.31 µM (inactive) | > 2 µM (inactive) | 0.158 µM (active)
Cc1nn(C)c2sc3c(=O)[nH]cnc3c12 |  |  | 25.1 µM (active) |  |  |  | > 79.4 µM (inactive) | 31.6 µM (active) | 39.8 µM (active) |  |  |  |  | > 79.4 µM (inactive) | 
Cc1c(/N=C2\C=CC(=O)c3ccccc32)c(=O)n(-c2ccccc2)n1C | 1.63 µM (active) |  |  |  |  |  |  |  |  |  |  |  |  |  | 
COc1cc2c(cc1F)C(c1ccccc1Cl)=Nc1c(n[nH]c1C)N2 [RG-1530] |  | > 7.94 µM (inactive) | > 3.98 µM (inactive) | 0.2 µM (active) | > 6.31 µM (inactive) | 0.1 µM (active) | 0.501 µM (active) | > 5.01 µM (inactive) | > 3.98 µM (inactive) | > 6.31 µM (inactive) | > 1.58 µM (inactive) | 3.16 µM (active) | > 6.31 µM (inactive) | 0.0126 µM (active) | 0.0398 µM (active)
